{
  "source": "patent US8114888B2",
  "about": "“Isothiazoloquinolones and related compounds as anti-infective agents” (Achillion Pharmaceuticals, Inc., priority 2005, dated 2012)",
  "key": {"[1]": {"assay": "Cell viability staining with Alamar Blue (compound cytotoxicity)", "assay_type": "cell-based", "settings": "positive control with known CC50", "experimental": "To determine whether the microcidal effect observed against S. aureus and E. coli is specific to bacterial cells, compounds are screened for cell viability effects on several human cell types.\nOptimal cell density is first determined by plating cells in a 96-well plate standard sterile tissue culture plates in 100 μl media, 10% FBS at six cell densities from 500 cells/well to 15,000 cells/well. A cell free well containing only media is used as a control. Cells are incubated at 37° C. in a 5% CO2 incubator for 24 hours. 10% culture volume (10 ul) of Alamar Blue (Biosource, DAL1100, 100 mL) is then added. Cells are incubated at 37° C. in a 5% CO2 incubator and read in a Victor V plate reader, 544 nm excitation, 590 nm emission, at 3, 4, and 24 hours after the addition of Alamar Blue. The cell number vs. change in fluorescence is plotted to determine linearity of signal vs. cell number. The optimal density varies between 500-15,000 cells/well depending on the specific cell type. […]\nCells are plated at optimal cell density in a standard sterile tissue culture 96 well plate, and incubated at 37° C. […] Plates are incubated 4 hours at 37° C. in a 5% CO2 incubator and read in a Victor V plate reader, 544 nm excitation, 590 nm emission. […]\nThe change in fluorescence vs. concentration of test compound is plotted to determine the cytotoxicity of the compound. […]"}},
  "data": [
    {"smiles": "CC(C)(C)c1ccc(C(O)CCCN2CCC(C(O)(c3ccccc3)c3ccccc3)CC2)cc1", "note": "(stereo not shown) [Terfenadine]", "values": [
      {"measurement": "CC50", "setting": "[1]; Chinese hamster, CHO cells (Chinese hamster ovary)", "result": "4.3 to 6.5", "unit": "µM"},
      {"measurement": "CC50", "setting": "[1]; human, Hep 2 cells (laryngeal carcinoma)", "result": "3 to 5", "unit": "µM"}
    ]},
    {"smiles": "NC1CCc2cc(-c3cc4c(cc3F)c(=O)c3c(=O)[nH]sc3n4C3CC3)ccc2C1", "note": "(racemic) [Compound 31, (rac)-7-(6-Amino-5,6,7,8-tetrahydronaphthalen-2-yl)-9-cyclopropyl-6-fluoro-9H-isothiazolo[5,4-b]quinoline-3,4-dione]", "values": [
      {"measurement": "melting point", "result": "> 257 °C (dec.)"}
    ]},
    {"smiles": "O=c1[nH]sc2c1c(=O)c1cc(F)c(C3=CCNCC3)cc1n2C1CC1", "values": [
      {"measurement": "melting point", "result": "> 241 °C (dec.)"}
    ]}
  ]
}
